Assay results from patent US7118895B2, “Process for producing aglycon by using diglycosidase and flavor-improved food containing the aglycon and converting agent to be used in the process” (Amano Enzyme Inc., priority 2000, dated 2006).

Legend:
[1] = system: β-Glucosidase derived from almond; experiment: Reactivity toward various isoflavone glycosides (HPLC); format: biochemical; parameters: unit not given here; conditions: 55 °C, pH 4.0
Outline: (§1)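 Enzymes at 0.75 AU/mL in pH 4.0 acetate buffer were reacted at 55° C with individual isoflavone glycosides (substrate stock 2 mM in methanol) in 20 mM acetate pH 4.0. Aglycone release followed at 0, 1, 3 and 6 h: ethanol-quenched, ODS HPLC with UV 260 nm, quantified against calibration curves.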

[2] = system: β-Xylosidase derived from pectinase G; experiment: as above; format: biochemical; parameters: unit not given here; conditions: 55 °C, pH 4.0
Outline: as §1

Crude diglycosidase = experiment: Examination of substrate concentration in the conversion into isoflavone aglycons by diglycosidase using soybean materials; format: biochemical, Penicillium multicolor IAM7153;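 for Decomposition efficiency: ratio of each glycoside/aglycon within its isoflavone family: percent of the isoflavone family total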
Outline: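 Soybean materials (roasted soy flour, soymilk, defatted soybean, concentrated soy protein) at 2–30% (w/v) in 20 mM acetate pH 4.0 were reacted with crude diglycosidase at 55° C with shaking; enzyme solution added was 1.88 AU/mL. Samples taken at 0, 1, 3 and 6 h were ethanol-extracted and analyzed by HPLC.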

CC(=O)OC[C@H]1O[C@@H](Oc2cc(O)c3c(=O)c(-c4ccc(O)cc4)coc3c2)[C@H](O)[C@@H](O)[C@@H]1O [acetylgenistin, 6″-O-acetylgenistin]
aglycon ([1]; Reaction time 0 h): 0
glucoside ([1]; Reaction time 0 h): 100
aglycon ([1]; Reaction time 1 h): 0
glucoside ([1]; Reaction time 1 h): 100
aglycon ([1]; Reaction time 3 h): 0
glucoside ([1]; Reaction time 3 h): 100
aglycon ([1]; Reaction time 6 h): 0
glucoside ([1]; Reaction time 6 h): 100
aglycon ([2]; Reaction time 0 h): 0
glucoside ([2]; Reaction time 0 h): 100
aglycon ([2]; Reaction time 1 h): 0
glucoside ([2]; Reaction time 1 h): 100
aglycon ([2]; Reaction time 3 h): 0.2
glucoside ([2]; Reaction time 3 h): 99.8
aglycon ([2]; Reaction time 6 h): 0.5
glucoside ([2]; Reaction time 6 h): 99.5
Decomposition efficiency: ratio of each glycoside/aglycon within its isoflavone family (Crude diglycosidase; concentrated soybean protein, substrate concentration 2%, heat treatment of enzyme no, reaction time 0 h): 42.9%
Decomposition efficiency: ratio of each glycoside/aglycon within its isoflavone family (Crude diglycosidase; concentrated soybean protein, substrate concentration 2%, heat treatment of enzyme no, reaction time 1 h): 20.0%
Decomposition efficiency: ratio of each glycoside/aglycon within its isoflavone family (Crude diglycosidase; concentrated soybean protein, substrate concentration 2%, heat treatment of enzyme no, reaction time 3 h): 8.3%
Decomposition efficiency: ratio of each glycoside/aglycon within its isoflavone family (Crude diglycosidase; concentrated soybean protein, substrate concentration 2%, heat treatment of enzyme no, reaction time 6 h): 3.3%
Decomposition efficiency: ratio of each glycoside/aglycon within its isoflavone family (Crude diglycosidase; concentrated soybean protein, substrate concentration 2%, heat treatment of enzyme yes, reaction time 6 h): 41.3%
Decomposition efficiency: ratio of each glycoside/aglycon within its isoflavone family (Crude diglycosidase; concentrated soybean protein, substrate concentration 5%, heat treatment of enzyme no, reaction time 0 h): 43.1%
Decomposition efficiency: ratio of each glycoside/aglycon within its isoflavone family (Crude diglycosidase; concentrated soybean protein, substrate concentration 5%, heat treatment of enzyme no, reaction time 1 h): 36.4%
Decomposition efficiency: ratio of each glycoside/aglycon within its isoflavone family (Crude diglycosidase; concentrated soybean protein, substrate concentration 5%, heat treatment of enzyme no, reaction time 3 h): 26.3%
Decomposition efficiency: ratio of each glycoside/aglycon within its isoflavone family (Crude diglycosidase; concentrated soybean protein, substrate concentration 5%, heat treatment of enzyme no, reaction time 6 h): 17.8%
Decomposition efficiency: ratio of each glycoside/aglycon within its isoflavone family (Crude diglycosidase; concentrated soybean protein, substrate concentration 5%, heat treatment of enzyme yes, reaction time 6 h): 41.7%
Decomposition efficiency: ratio of each glycoside/aglycon within its isoflavone family (Crude diglycosidase; concentrated soybean protein, substrate concentration 10%, heat treatment of enzyme no, reaction time 0 h): 43.4%
Decomposition efficiency: ratio of each glycoside/aglycon within its isoflavone family (Crude diglycosidase; concentrated soybean protein, substrate concentration 10%, heat treatment of enzyme no, reaction time 1 h): 42.8%
Decomposition efficiency: ratio of each glycoside/aglycon within its isoflavone family (Crude diglycosidase; concentrated soybean protein, substrate concentration 10%, heat treatment of enzyme no, reaction time 3 h): 37.3%
Decomposition efficiency: ratio of each glycoside/aglycon within its isoflavone family (Crude diglycosidase; concentrated soybean protein, substrate concentration 10%, heat treatment of enzyme no, reaction time 6 h): 33.2%
Decomposition efficiency: ratio of each glycoside/aglycon within its isoflavone family (Crude diglycosidase; concentrated soybean protein, substrate concentration 10%, heat treatment of enzyme yes, reaction time 6 h): 42.8%
Decomposition efficiency: ratio of each glycoside/aglycon within its isoflavone family (Crude diglycosidase; concentrated soybean protein, substrate concentration 20%, heat treatment of enzyme no, reaction time 0 h): 43.7%
Decomposition efficiency: ratio of each glycoside/aglycon within its isoflavone family (Crude diglycosidase; concentrated soybean protein, substrate concentration 20%, heat treatment of enzyme no, reaction time 1 h): 47.0%
Decomposition efficiency: ratio of each glycoside/aglycon within its isoflavone family (Crude diglycosidase; concentrated soybean protein, substrate concentration 20%, heat treatment of enzyme no, reaction time 3 h): 44.6%
Decomposition efficiency: ratio of each glycoside/aglycon within its isoflavone family (Crude diglycosidase; concentrated soybean protein, substrate concentration 20%, heat treatment of enzyme no, reaction time 6 h): 42.3%
Decomposition efficiency: ratio of each glycoside/aglycon within its isoflavone family (Crude diglycosidase; concentrated soybean protein, substrate concentration 20%, heat treatment of enzyme yes, reaction time 6 h): 43.2%
Decomposition efficiency: ratio of each glycoside/aglycon within its isoflavone family (Crude diglycosidase; concentrated soybean protein, substrate concentration 30%, heat treatment of enzyme no, reaction time 0 h): 43.5%
Decomposition efficiency: ratio of each glycoside/aglycon within its isoflavone family (Crude diglycosidase; concentrated soybean protein, substrate concentration 30%, heat treatment of enzyme no, reaction time 1 h): 65.3%
Decomposition efficiency: ratio of each glycoside/aglycon within its isoflavone family (Crude diglycosidase; concentrated soybean protein, substrate concentration 30%, heat treatment of enzyme no, reaction time 3 h): 61.0%
Decomposition efficiency: ratio of each glycoside/aglycon within its isoflavone family (Crude diglycosidase; concentrated soybean protein, substrate concentration 30%, heat treatment of enzyme no, reaction time 6 h): 55.9%
Decomposition efficiency: ratio of each glycoside/aglycon within its isoflavone family (Crude diglycosidase; concentrated soybean protein, substrate concentration 30%, heat treatment of enzyme yes, reaction time 6 h): 42.4%
Decomposition efficiency: ratio of each glycoside/aglycon within its isoflavone family (Crude diglycosidase; roasted soy flour, substrate concentration 2%, heat treatment of enzyme no, reaction time 0 h): 44.7%
Decomposition efficiency: ratio of each glycoside/aglycon within its isoflavone family (Crude diglycosidase; roasted soy flour, substrate concentration 2%, heat treatment of enzyme no, reaction time 1 h): 10.6%
Decomposition efficiency: ratio of each glycoside/aglycon within its isoflavone family (Crude diglycosidase; roasted soy flour, substrate concentration 2%, heat treatment of enzyme no, reaction time 3 h): 5.0%
Decomposition efficiency: ratio of each glycoside/aglycon within its isoflavone family (Crude diglycosidase; roasted soy flour, substrate concentration 2%, heat treatment of enzyme no, reaction time 6 h): 1.5%
Decomposition efficiency: ratio of each glycoside/aglycon within its isoflavone family (Crude diglycosidase; roasted soy flour, substrate concentration 2%, heat treatment of enzyme yes, reaction time 6 h): 45.0%
Decomposition efficiency: ratio of each glycoside/aglycon within its isoflavone family (Crude diglycosidase; roasted soy flour, substrate concentration 5%, heat treatment of enzyme no, reaction time 0 h): 44.7%
Decomposition efficiency: ratio of each glycoside/aglycon within its isoflavone family (Crude diglycosidase; roasted soy flour, substrate concentration 5%, heat treatment of enzyme no, reaction time 1 h): 22.1%
Decomposition efficiency: ratio of each glycoside/aglycon within its isoflavone family (Crude diglycosidase; roasted soy flour, substrate concentration 5%, heat treatment of enzyme no, reaction time 3 h): 15.2%
Decomposition efficiency: ratio of each glycoside/aglycon within its isoflavone family (Crude diglycosidase; roasted soy flour, substrate concentration 5%, heat treatment of enzyme no, reaction time 6 h): 9.2%
Decomposition efficiency: ratio of each glycoside/aglycon within its isoflavone family (Crude diglycosidase; roasted soy flour, substrate concentration 5%, heat treatment of enzyme yes, reaction time 6 h): 44.7%
Decomposition efficiency: ratio of each glycoside/aglycon within its isoflavone family (Crude diglycosidase; roasted soy flour, substrate concentration 10%, heat treatment of enzyme no, reaction time 0 h): 38.2%
Decomposition efficiency: ratio of each glycoside/aglycon within its isoflavone family (Crude diglycosidase; roasted soy flour, substrate concentration 10%, heat treatment of enzyme no, reaction time 1 h): 33.3%
Decomposition efficiency: ratio of each glycoside/aglycon within its isoflavone family (Crude diglycosidase; roasted soy flour, substrate concentration 10%, heat treatment of enzyme no, reaction time 3 h): 25.3%
Decomposition efficiency: ratio of each glycoside/aglycon within its isoflavone family (Crude diglycosidase; roasted soy flour, substrate concentration 10%, heat treatment of enzyme no, reaction time 6 h): 18.7%
Decomposition efficiency: ratio of each glycoside/aglycon within its isoflavone family (Crude diglycosidase; roasted soy flour, substrate concentration 10%, heat treatment of enzyme yes, reaction time 6 h): 45.9%
Decomposition efficiency: ratio of each glycoside/aglycon within its isoflavone family (Crude diglycosidase; roasted soy flour, substrate concentration 20%, heat treatment of enzyme no, reaction time 0 h): 46.1%
Decomposition efficiency: ratio of each glycoside/aglycon within its isoflavone family (Crude diglycosidase; roasted soy flour, substrate concentration 20%, heat treatment of enzyme no, reaction time 1 h): 44.1%
Decomposition efficiency: ratio of each glycoside/aglycon within its isoflavone family (Crude diglycosidase; roasted soy flour, substrate concentration 20%, heat treatment of enzyme no, reaction time 3 h): 35.8%
Decomposition efficiency: ratio of each glycoside/aglycon within its isoflavone family (Crude diglycosidase; roasted soy flour, substrate concentration 20%, heat treatment of enzyme no, reaction time 6 h): 28.6%
Decomposition efficiency: ratio of each glycoside/aglycon within its isoflavone family (Crude diglycosidase; roasted soy flour, substrate concentration 20%, heat treatment of enzyme yes, reaction time 6 h): 46.2%
Decomposition efficiency: ratio of each glycoside/aglycon within its isoflavone family (Crude diglycosidase; roasted soy flour, substrate concentration 30%, heat treatment of enzyme no, reaction time 0 h): 46.7%
Decomposition efficiency: ratio of each glycoside/aglycon within its isoflavone family (Crude diglycosidase; roasted soy flour, substrate concentration 30%, heat treatment of enzyme no, reaction time 1 h): 46.6%
Decomposition efficiency: ratio of each glycoside/aglycon within its isoflavone family (Crude diglycosidase; roasted soy flour, substrate concentration 30%, heat treatment of enzyme no, reaction time 3 h): 41.4%
Decomposition efficiency: ratio of each glycoside/aglycon within its isoflavone family (Crude diglycosidase; roasted soy flour, substrate concentration 30%, heat treatment of enzyme no, reaction time 6 h): 37.8%
Decomposition efficiency: ratio of each glycoside/aglycon within its isoflavone family (Crude diglycosidase; roasted soy flour, substrate concentration 30%, heat treatment of enzyme yes, reaction time 6 h): 46.1%
Decomposition efficiency of genistin family in defatted soybean (Crude diglycosidase; substrate concentration 2%, heat treatment of enzyme no, reaction time 0 h): 1.8
Decomposition efficiency of genistin family in defatted soybean (Crude diglycosidase; substrate concentration 2%, heat treatment of enzyme no, reaction time 1 h): not detected
Decomposition efficiency of genistin family in defatted soybean (Crude diglycosidase; substrate concentration 2%, heat treatment of enzyme no, reaction time 3 h): not detected
Decomposition efficiency of genistin family in defatted soybean (Crude diglycosidase; substrate concentration 2%, heat treatment of enzyme no, reaction time 6 h): not detected
Decomposition efficiency of genistin family in defatted soybean (Crude diglycosidase; substrate concentration 2%, heat treatment of enzyme yes, reaction time 6 h): 1.5
Decomposition efficiency of genistin family in defatted soybean (Crude diglycosidase; substrate concentration 5%, heat treatment of enzyme no, reaction time 0 h): 1.9
Decomposition efficiency of genistin family in defatted soybean (Crude diglycosidase; substrate concentration 5%, heat treatment of enzyme no, reaction time 1 h): 0.8
Decomposition efficiency of genistin family in defatted soybean (Crude diglycosidase; substrate concentration 5%, heat treatment of enzyme no, reaction time 3 h): 0.5
Decomposition efficiency of genistin family in defatted soybean (Crude diglycosidase; substrate concentration 5%, heat treatment of enzyme no, reaction time 6 h): 0.3
Decomposition efficiency of genistin family in defatted soybean (Crude diglycosidase; substrate concentration 5%, heat treatment of enzyme yes, reaction time 6 h): 1.8
Decomposition efficiency of genistin family in defatted soybean (Crude diglycosidase; substrate concentration 10%, heat treatment of enzyme no, reaction time 0 h): 1.9
Decomposition efficiency of genistin family in defatted soybean (Crude diglycosidase; substrate concentration 10%, heat treatment of enzyme no, reaction time 1 h): 1.3
Decomposition efficiency of genistin family in defatted soybean (Crude diglycosidase; substrate concentration 10%, heat treatment of enzyme no, reaction time 3 h): 0.9
Decomposition efficiency of genistin family in defatted soybean (Crude diglycosidase; substrate concentration 10%, heat treatment of enzyme no, reaction time 6 h): 0.6
Decomposition efficiency of genistin family in defatted soybean (Crude diglycosidase; substrate concentration 10%, heat treatment of enzyme yes, reaction time 6 h): 1.7
